Measurements as given in patent US12509459B2, “Inhibitors of NLRP3 inflammasome” (BioAge Labs, Inc., priority 2024, dated 2025).
Values belong to the compound of their own block, whether it stands above or below them.

Assays:
[1] = system: DIO mice; test: Diet-induced obesity (DIO) mouse model; type: in vivo; conditions: for Day 14 BW % change vs. baseline / Day 28 BW % change vs. DIO/VEH / Day 28 BW % change vs. baseline: po; for fat mass: FIG. 15; for body weight of high fat DIO mice / food consumption of high fat DIO mice: summary, comparable to the effect of Semaglutide
[2] = biological target: T1, NLRP3 (Homo sapiens, UniProt Q96P20); test: THP-1 cell-based NLRP3 activation assay; set-up: endogenous in cells; host or cells: THP-1 cells (PMA-differentiated, LPS-primed, nigericin-stimulated); conditions: PMA-differentiated THP-1 cells, LPS 100 ng/mL then 10 μM nigericin
Outline: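 After 30 min compound preincubation, inflammasome activation was triggered with 10 μM nigericin (1 h) in LPS-primed (100 ng/mL, 3 h) THP-1 cells differentiated with PMA at 20 nM/24 h or 500 nM/3 h. CellTiter-Glo measured residual cell viability.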
Target sequence in this assay (Q96P20 whole entry): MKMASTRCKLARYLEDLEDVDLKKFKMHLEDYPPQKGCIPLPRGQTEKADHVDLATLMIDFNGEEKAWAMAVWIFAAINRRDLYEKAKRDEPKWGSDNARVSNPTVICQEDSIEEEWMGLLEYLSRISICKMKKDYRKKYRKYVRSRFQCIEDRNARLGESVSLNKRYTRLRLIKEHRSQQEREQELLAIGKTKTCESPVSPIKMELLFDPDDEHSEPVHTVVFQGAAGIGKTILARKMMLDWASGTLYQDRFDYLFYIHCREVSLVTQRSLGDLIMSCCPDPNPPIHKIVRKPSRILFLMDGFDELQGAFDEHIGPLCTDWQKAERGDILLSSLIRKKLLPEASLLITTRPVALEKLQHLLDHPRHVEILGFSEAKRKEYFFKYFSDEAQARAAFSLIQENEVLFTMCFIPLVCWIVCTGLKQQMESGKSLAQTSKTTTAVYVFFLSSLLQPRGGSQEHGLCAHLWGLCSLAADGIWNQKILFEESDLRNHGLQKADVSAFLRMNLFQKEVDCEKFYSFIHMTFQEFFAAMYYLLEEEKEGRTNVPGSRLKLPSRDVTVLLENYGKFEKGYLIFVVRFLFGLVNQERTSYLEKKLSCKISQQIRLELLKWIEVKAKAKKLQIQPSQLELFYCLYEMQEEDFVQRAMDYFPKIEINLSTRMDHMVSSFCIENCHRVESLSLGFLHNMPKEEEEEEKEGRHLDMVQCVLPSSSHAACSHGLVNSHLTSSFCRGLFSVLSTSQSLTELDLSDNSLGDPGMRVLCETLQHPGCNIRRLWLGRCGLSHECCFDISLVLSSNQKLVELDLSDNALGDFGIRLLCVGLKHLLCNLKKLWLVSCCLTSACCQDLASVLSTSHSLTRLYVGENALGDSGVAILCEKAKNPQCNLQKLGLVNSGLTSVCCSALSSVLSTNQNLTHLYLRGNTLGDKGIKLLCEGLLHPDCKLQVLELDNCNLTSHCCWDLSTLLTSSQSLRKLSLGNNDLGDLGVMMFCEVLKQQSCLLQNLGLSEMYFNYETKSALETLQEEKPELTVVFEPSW

[3] = system: foot gout mouse model; test: Foot gout mouse model; type: in vivo; conditions: for swelling: FIG. 16 and FIG. 17
[4] = biological target: T1, NLRP3; test: Cryo-EM NLRP3 epitope determination; type: binding; set-up: made in house; host or cells: Sf9 insect cells (baculovirus); conditions: cryo-EM of NLRP3·Compound 007 complex, 3.00 Å resolution, FIG. 1
Description: Compound 007 of the disclosure was used as an exemplary compound for determining the epitope to NLRP3, using cryogenic electron microscopy (cryo-EM).
Full length, human NLRP3 (3-1036, UniProt accession code Q96P20), codon-optimized for Spodoptera frugiperda, was cloned in an in-house modified pACE-Bac1 vector containing an N-terminal MBP-tag, followed by a Tobacco etch virus (TEV) protease cleavage site. For recombinant protein expression of MBP-NLRP3, 1 L of Sf9 insect cells were infected with 3% v/v viral stock of the second virus passage. The expression culture was incubated for 72 h at 27° C. and 80 rpm, and was subsequently harvested by centrifugation at 2000 rpm for 20 min. […] Elution fractions were analyzed by SDS-PAGE and negative stain electron microscopy (EM), before they were plunge frozen for cryo-EM analysis.
The purified NLRP3·Compound 007 complex was applied onto glow-discharged EM-grids (Quantifoil Cu300 R2/1+2 nm carbon support film), incubated for 30s at 100% humidity and 4° C., before it was blotted for 5s with blot force 5 and plunge frozen into liquid ethane using a Vitrobot mark IV plunge freezing device (Thermo Fisher Scientific). […] Using the blob picker, 3,114,152 particles were picked and detected of which 2,058,399 were extracted (search particle diameter […], 588 box size), of which 559,748 particles remained after multiple rounds of 2D classification. […]
Target sequence in this assay (Q96P20 3-1036): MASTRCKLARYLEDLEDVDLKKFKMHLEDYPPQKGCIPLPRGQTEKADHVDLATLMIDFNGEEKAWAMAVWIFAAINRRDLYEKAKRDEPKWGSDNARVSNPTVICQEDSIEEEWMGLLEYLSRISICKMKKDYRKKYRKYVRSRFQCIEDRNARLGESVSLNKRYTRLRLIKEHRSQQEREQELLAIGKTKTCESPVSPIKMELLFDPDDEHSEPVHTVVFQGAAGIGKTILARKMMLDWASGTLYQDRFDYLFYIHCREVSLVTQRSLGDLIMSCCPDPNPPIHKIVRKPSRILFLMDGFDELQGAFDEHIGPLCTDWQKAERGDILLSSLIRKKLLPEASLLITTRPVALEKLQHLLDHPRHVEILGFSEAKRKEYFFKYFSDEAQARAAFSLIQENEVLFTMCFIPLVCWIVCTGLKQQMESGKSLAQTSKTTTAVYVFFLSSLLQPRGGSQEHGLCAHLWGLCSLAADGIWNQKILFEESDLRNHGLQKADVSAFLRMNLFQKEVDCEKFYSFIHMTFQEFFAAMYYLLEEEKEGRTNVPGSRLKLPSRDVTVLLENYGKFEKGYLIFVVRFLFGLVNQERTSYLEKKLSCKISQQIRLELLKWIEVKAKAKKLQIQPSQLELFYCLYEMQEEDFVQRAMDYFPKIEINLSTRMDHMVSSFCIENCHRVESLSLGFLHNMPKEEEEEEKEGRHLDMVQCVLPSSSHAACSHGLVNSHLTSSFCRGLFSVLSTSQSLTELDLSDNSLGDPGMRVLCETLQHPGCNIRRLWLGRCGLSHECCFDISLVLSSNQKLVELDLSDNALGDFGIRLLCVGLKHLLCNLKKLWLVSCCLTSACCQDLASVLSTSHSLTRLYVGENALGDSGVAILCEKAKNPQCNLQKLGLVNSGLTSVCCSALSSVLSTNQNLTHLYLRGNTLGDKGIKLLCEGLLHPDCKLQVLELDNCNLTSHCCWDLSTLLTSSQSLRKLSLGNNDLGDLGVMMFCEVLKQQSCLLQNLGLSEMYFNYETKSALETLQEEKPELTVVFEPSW

[5] = Compound 096/211 study, FIGS. 14A and 14B
[6] = DIO mice, Compound 096/211 study, FIG. 14
[7] = DIO mice, Compound 096/211 study
[8] = DIO mice, 5 to 100/75 mpk QD PO, FIG. 10
[9] = DIO mice, 100/75 mpk, qd (75 mpk since day 9)
[10] = DIO mice, doses of 50 mpk or higher, FIG. 11
[11] = DIO mice, doses of 50 mpk or higher, treatment for 4 weeks, FIG. 13

SMILES: [2H]C([2H])([2H])N(CC[C@H](c1cncc2cn[nH]c12)N(C)C(=O)c1ccc(-c2cccc(F)c2)c(OCC)c1)C([2H])([2H])[2H] [Compound 211]
body weight of DIO mice [1, 5]: dose-dependent effect on reducing body weight | Day 14 BW % change vs. baseline ([1]; DIO mice, 50 mpk, qd): −14.9% | food consumption [1, 6]: dose-dependent effect on reducing food consumption | fat mass [1, 7]: caused a change in fat mass | body weight of high fat DIO mice [1]: significantly reduced | food consumption of high fat DIO mice [1]: significantly reduced | IC50 [2]: < 0.1 µM

SMILES: CCOc1cc(C(=O)N(C)[C@H](CCN(C)C)c2cncc3cn[nH]c23)ccc1-c1ccccc1 [Compound 096]
body weight of DIO mice [1, 5]: dose-dependent effect on reducing body weight | Day 14 BW % change vs. baseline ([1]; DIO mice, 50 mpk, qd): −11.9% | food consumption [1, 6]: dose-dependent effect on reducing food consumption | fat mass [1, 7]: caused a change in fat mass | body weight of high fat DIO mice [1]: significantly reduced | food consumption of high fat DIO mice [1]: significantly reduced | IC50 [2]: < 0.1 µM | swelling [3]: reduce swelling in a foot gout mouse model in a dose dependent manner

SMILES: CCOc1cc(C(=O)N(C)[C@H](CCN(C)C)c2cncc3cn[nH]c23)ccc1-c1cccc(F)c1 [Compound 040]
body weight of DIO mice ([1]; 5 to 100/75 mpk QD PO, FIG. 8): dose-dependent effect on reducing body weight | Day 28 BW % change vs. DIO/VEH ([1]; DIO mice, 5 mpk, qd): 0.6% | Day 28 BW % change vs. baseline ([1]; DIO mice, 5 mpk, qd): 4.6% | food consumption ([1]; DIO mice, 5 to 100/75 mpk QD PO, FIG. 9): dose-dependent effect on reducing food consumption | fat mass to body weight percentage [1, 8]: dose-dependent effect on reducing fat mass to body weight percentage | lean mass to body weight percentage [1, 8]: maintaining lean mass to body weight percentage | Day 28 BW % change vs. DIO/VEH ([1]; DIO mice, 20 mpk, qd): −2.7% | Day 28 BW % change vs. baseline ([1]; DIO mice, 20 mpk, qd): 1.3% | Day 28 BW % change vs. DIO/VEH ([1]; DIO mice, 50 mpk, qd): −11.6% | Day 28 BW % change vs. baseline ([1]; DIO mice, 50 mpk, qd): −7.6% | Day 28 BW % change vs. DIO/VEH [1, 9]: −22.0% | Day 28 BW % change vs. baseline [1, 9]: −17.9% | inguinal fat to body weight percentage or muscle tissues to body weight percentage ([1]; DIO mice, compared with Semaglutide treated mice, FIG. 13): no significant difference from Semaglutide treated mice | fasting glucose [1, 10]: significantly reduced fasting glucose | insulin sensitivity [1, 10]: improved insulin sensitivity | inguinal fat weight [1, 11]: significantly reduced | liver weight [1, 11]: significantly reduced | body weight of high fat DIO mice [1]: significantly reduced | food consumption of high fat DIO mice [1]: significantly reduced | IC50 [2]: < 0.1 µM | treatment mode in foot gout model [3]: can be used as both a preventative and therapeutic treatment | swelling [3]: reduce swelling in a foot gout mouse model in a dose dependent manner

SMILES: CCOc1cc(C(=O)N(C)[C@H](CN(C)C)c2cccc3cn[nH]c23)ccc1-c1cccc(F)c1 [Compound 256]
IC50 [2]: 0.1 to 0.5 µM

SMILES: CCOc1cc(C(=O)N(C)[C@H](CCN(CCF)CCF)c2cncc3cn[nH]c23)ccc1-c1cccc(F)c1 [Compound 064]
IC50 [2]: < 0.1 µM

SMILES: CCOc1cc(C(=O)N(C)[C@H](CCN(C)CCOC)c2cncc3cn[nH]c23)ccc1-c1cccc(Cl)c1 [Compound 229]
IC50 [2]: < 0.1 µM

SMILES: CCOc1cc(C(=O)N(CCO)Cc2cnc(CNC)c3cn[nH]c23)ccc1-c1cccc(F)c1 [Compound 050]
IC50 [2]: 1 to 15 µM

SMILES: CCOc1cc(C(=O)N(C)[C@H](CN(CC)CC)c2cccc3cn[nH]c23)ccc1-c1cccc(F)c1 [Compound 260]
IC50 [2]: 1 to 15 µM

SMILES: CCOc1cc(C(=O)N(C)[C@@H](CCN)c2cnc(C)c3cn[nH]c23)ccc1C [Compound 299]
IC50 [2]: 1 to 15 µM

SMILES: CCOc1cc(C(=O)N(CCN2CCC(F)(F)C2)Cc2cncc3cn[nH]c23)ccc1-c1cccc(F)c1 [Compound 115]
IC50 [2]: < 0.1 µM

SMILES: CN(C)CC[C@H](c1cncc2cn[nH]c12)N(C)C(=O)c1ccc(-c2ccccc2)c(OC2CC2)c1 [Compound 073]
IC50 [2]: < 0.1 µM

SMILES: CCOc1cc(C(=O)N(CCNC)Cc2cncc3cn[nH]c23)ccc1-c1cccc(F)c1 [Compound 116]
IC50 [2]: < 0.1 µM

SMILES: CCOc1cc(C(=O)N(C)[C@H](CCNC)c2cncc3cn[nH]c23)ccc1-c1cccc(F)c1 [Compound 039]
IC50 [2]: 1 to 15 µM

SMILES: CCOc1cc(C(=O)N(C)[C@@H](c2cncc3cn[nH]c23)[C@@H]2CCN(C)C2)ccc1-c1ccccc1 [Compound 160]
IC50 [2]: < 0.1 µM

The next lines start with results.

IC50 [2]: < 0.1 µM
SMILES: CCOc1cc(C(=O)N(C)[C@@H](CCO)c2cnc(C)c3cn[nH]c23)ccc1-c1cccc(Cl)c1 [Compound 029]

IC50 [2]: < 0.1 µM
SMILES: CCOc1cc(C(=O)N(C)[C@@H](c2cncc3cn[nH]c23)[C@H]2CCNC2)ccc1-c1cccc(F)c1 (single isomer, unassigned) [Compound 089]

IC50 [2]: 1 to 15 µM
SMILES: CCOc1cc(C(=O)N(C)[C@H](CCN(C)C)c2cncc3cn[nH]c23)ccc1C(C)C [Compound 158]

IC50 [2]: < 0.1 µM
SMILES: CCOc1cc(C(=O)N(CCN2C[C@@H](F)C[C@H](F)C2)Cc2cncc3cn[nH]c23)ccc1-c1cccc(F)c1 [Compound 111]

IC50 [2]: < 0.1 µM
SMILES: CCOc1cc(C(=O)N(C)[C@@H](CN(C)C)c2cncc3cn[nH]c23)ccc1-c1cccc(Cl)c1 [Compound 126]

IC50 [2]: < 0.1 µM
SMILES: CCOc1cc(C(=O)N(Cc2cccc3cn[nH]c23)[C@H]2C[C@@H](N)C2)ccc1-c1cccc(C#N)c1 [Compound 292]

IC50 [2]: 0.1 to 0.5 µM
SMILES: CCOc1cc(C(=O)N(Cc2cncc3cn[nH]c23)C2CC(N(C)C)C2)ccc1-c1cccc(Cl)c1 (stereo not drawn) [Compound 242]

IC50 [2]: < 0.1 µM
SMILES: CCOc1cc(C(=O)N(C)[C@@H](c2cncc3cn[nH]c23)C2CN(CC)C2)ccc1-c1ccccc1 [Compound 177]

IC50 [2]: < 0.1 µM
SMILES: CCOc1cc(C(=O)N(C)[C@@H](CN(C)C)c2cccc3cn[nH]c23)ccc1-c1cccc(F)c1 [Compound 257]

IC50 [2]: < 0.1 µM
SMILES: CCOc1cc(C(=O)N(C)[C@H](CN(C)C)c2cncc3cn[nH]c23)ccc1-c1cccc(Cl)c1 [Compound 125]

IC50 [2]: < 0.1 µM
SMILES: CCOc1cc(C(=O)N(C)[C@H](CCO)c2cncc3cn[nH]c23)ccc1-c1cccc(F)c1 [Compound 007]
binding site on NLRP3 [4]: binds in a pocket on the surface of the NACHT domain of NLRP3

IC50 [2]: < 0.1 µM
SMILES: CCOc1cc(C(=S)N(C)[C@H](CCN(C)C)c2cncc3cn[nH]c23)ccc1-c1cccc(F)c1 [Compound 224]

IC50 [2]: < 0.1 µM
SMILES: CCOc1cc(C(=O)N(C)[C@@H](c2cncc3cn[nH]c23)C2CN(C)C2)ccc1-c1cccc(Cl)c1 [Compound 183]

IC50 [2]: < 0.1 µM
SMILES: CCOc1cc(C(=O)N(C)[C@H](CCN2CCC(F)(F)C2)c2cncc3cn[nH]c23)ccc1-c1cccc(F)c1 [Compound 100]
